In patent publication US20240018145A1, “[…]-DEPENDENT EN[…] TREATING OR […]” (priority 2020, published 2024):

tested on: FLU A (PR/8/34); assay: Flu A Neuraminidase Antiviral Assay; format: cell-based; settings: not given

Row | SMILES | EC50
1 | CN1C(=O)c2c(O)c(=O)ccn2N2C(c3ccc(F)cc3)CCCC12 (single isomer, unassigned) [Compound 2B, 1-(4-fluorophenyl)-7-hydroxy-5-methyl-1,2,3,4,4a,5-hexahydrodipyrido[1,2-b:2′,1′-f][1,2,4]triazine-6,8-dione] | 5920 nM
2 | CN1C(=O)c2c(O)c(=O)ccn2N2C(c3cccc(F)c3)CCCC12 (single isomer, unassigned) [Compound 10A, 1-(3-fluorophenyl)-7-hydroxy-5-methyl-1,2,3,4,4a,5-hexahydrodipyrido[1,2-b:2′,1′-f][1,2,4]triazine-6,8-dione] | 1610 nM
3 | Cc1ccccc1C1N2C(CCC13CC1C(C3)C1(F)F)N(C)C(=O)c1c(O)c(=O)ccn12 (single isomer, unassigned) [Compound 69B, 6,6-difluoro-7′-hydroxy-5′-methyl-1′-(o-tolyl)-3′,4′,4a′,5′-tetrahydro-1′H-spiro[bicyclo[3.1.0]hexane-3,2′-dipyrido[1,2-b:2′,1′-f][1,2,4]triazine]-6′,8′-dione] | 57 nM
4 | CN1C(=O)c2c(O)c(=O)ccn2N2C(c3ccccc3)C3CCC(C3)C12 (single isomer, unassigned) [Compound 9A, 4-hydroxy-6-methyl-11-phenyl-6a,7,8,9,10,11-hexahydro-3H-7,10-methanopyrido[1′,2′:1,6][1,2,4]triazino[2,3-a]azepine-3,5(6H)-dione] | 6210 nM
5 | CCN1C(=O)c2c(O)c(=O)ccn2N2C(c3ccccc3C)C(CCC(F)F)CCC12 (single isomer, unassigned) [Compound 102B, 2-(3,3-difluoropropyl)-5-ethyl-7-hydroxy-1-(o-tolyl)-1,2,3,4,4a,5-hexahydrodipyrido[1,2-b:2′,1′-f][1,2,4]triazine-6,8-dione] | 36.5 nM
6 | CC1(c2ccccc2)CCCC2N(CC3CC4(CCC4)C3)C(=O)c3c(O)c(=O)ccn3N21 (single isomer, unassigned) [Compound 42A, 7-hydroxy-1-methyl-1-phenyl-5-(spiro[3.3]heptan-2-ylmethyl)-1,2,3,4,4a,5-hexahydrodipyrido[1,2-b:2′,1′-f][1,2,4]triazine-6,8-dione] | > 8100 nM
7 | CCCC1CCC2N(C)C(=O)c3c(O)c(=O)ccn3N2C1c1ccccc1C (single isomer, unassigned) [Compound 92A, 7-hydroxy-5-methyl-2-propyl-1-(o-tolyl)-1,2,3,4,4a,5-hexahydrodipyrido[1,2-b:2′,1′-f][1,2,4]triazine-6,8-dione] | 4570 nM
8 | CCN1C(=O)c2c(O)c(=O)ccn2N2C(c3ccccc3)C(CC3(C(F)(F)F)CC3)CCC12 (single isomer, unassigned) [Compound 97B, 5-ethyl-7-hydroxy-1-phenyl-2-((1-(trifluoromethyl)cyclopropyl)methyl)-1,2,3,4,4a,5-hexahydrodipyrido[1,2-b:2′,1′-f][1,2,4]triazine-6,8-dione] | 24.2 nM
9 | Cc1cccc(C2(C)CCCC3N(CC(F)F)C(=O)c4c(O)c(=O)ccn4N32)n1 (single isomer, unassigned) [Compound 54A, 5-(2,2-difluoroethyl)-7-hydroxy-1-methyl-1-(6-methylpyridin-2-yl)-1,2,3,4,4a,5-hexahydrodipyrido[1,2-b:2′,1′-f][1,2,4]triazine-6,8-dione] | > 810 nM
10 | CCN1C(=O)c2c(O)c(=O)ccn2N2C(c3ccccc3Br)C(CC(F)(F)F)CCC12 (single isomer, unassigned) [Compound 106B, 1-(2-bromophenyl)-5-ethyl-7-hydroxy-2-(2,2,2-trifluoroethyl)-1,2,3,4,4a,5-hexahydrodipyrido[1,2-b:2′,1′-f][1,2,4]triazine-6,8-dione] | 87.8 nM
11 | CN1C(=O)c2c(O)c(=O)ccn2N2C1CCC1(CCC(F)(F)C1)C2c1ccccc1 (single isomer, unassigned) [Compound 68C, 3,3-difluoro-7′-hydroxy-5′-methyl-1′-phenyl-3′,4′,4a′,5′-tetrahydro-1′H-spiro[cyclopentane-1,2′-dipyrido[1,2-b:2′,1′-f][1,2,4]triazine]-6′,8′-dione] | 11.4 nM
12 | COc1ccccc1C1CCCC2N(C)C(=O)c3c(O)c(=O)ccn3N12 (single isomer, unassigned) [Compound 19A, 7-hydroxy-1-(2-methoxyphenyl)-5-methyl-1,2,3,4,4a,5-hexahydrodipyrido[1,2-b:2′,1′-f][1,2,4]triazine-6,8-dione] | > 8100 nM
13 | CN1C(=O)c2c(O)c(=O)ccn2N2C(c3ccccc3)C(C3(C(F)(F)F)CC3)CCC12 (single isomer, unassigned) [Compound 108B, 7-hydroxy-5-methyl-1-phenyl-2-(1-(trifluoromethyl)cyclopropyl)-1,2,3,4,4a,5-hexahydrodipyrido[1,2-b:2′,1′-f][1,2,4]triazine-6,8-dione] | 9.4 nM
14 | CN1C(=O)c2c(O)c(=O)ccn2N2C(c3ccccc3C(F)(F)F)CCCC12 (single isomer, unassigned) [Compound 14B, 7-hydroxy-5-methyl-1-(2-(trifluoromethyl)phenyl)-1,2,3,4,4a,5-hexahydrodipyrido[1,2-b:2′,1′-f][1,2,4]triazine-6,8-dione] | > 8100 nM
15 | CN1C(=O)c2c(O)c(=O)ccn2N2C(c3ccccc3)C(CC3CC3(F)F)CCC12 (single isomer, unassigned) [Compound 114A, 2-((2,2-difluorocyclopropyl)methyl)-7-hydroxy-5-methyl-1-phenyl-1,2,3,4,4a,5-hexahydrodipyrido[1,2-b:2′,1′-f][1,2,4]triazine-6,8-dione] | > 8100 nM
16 | CC1(c2ccccc2)CCCC2N(CC3CC4(CCC4)C3)C(=O)c3c(O)c(=O)ccn3N21 (single isomer, unassigned) [Compound 42B, 7-hydroxy-1-methyl-1-phenyl-5-(spiro[3.3]heptan-2-ylmethyl)-1,2,3,4,4a,5-hexahydrodipyrido[1,2-b:2′,1′-f][1,2,4]triazine-6,8-dione] | 49.5 nM
17 | Cc1ccccc1C1C(CC(F)(F)F)CCC2N(C)C(=O)c3c(O)c(=O)ccn3N12 (single isomer, unassigned) [Compound 120B, 7-hydroxy-5-methyl-1-(o-tolyl)-2-(2,2,2-trifluoroethyl)-1,2,3,4,4a,5-hexahydrodipyrido[1,2-b:2′,1′-f][1,2,4]triazine-6,8-dione] | 1.9 nM
18 | Cc1ccccc1C1C(CC2CC2(F)F)CCC2N(C)C(=O)c3c(O)c(=O)ccn3N12 (single isomer, unassigned) [Compound 88A] | > 810 nM
19 | CCc1ccccc1C1C(CC(F)(F)F)CCC2N(C)C(=O)c3c(O)c(=O)ccn3N12 (single isomer, unassigned) [Compound 112B, 1-(2-ethylphenyl)-7-hydroxy-5-methyl-2-(2,2,2-trifluoroethyl)-1,2,3,4,4a,5-hexahydrodipyrido[1,2-b:2′,1′-f][1,2,4]triazine-6,8-dione] | 162 nM
20 | CN1C(=O)c2c(O)c(=O)ccn2N2C(c3c(F)cccc3F)C(CC(F)(F)F)CCC12 (single isomer, unassigned) [Compound 123C, 1-(2,6-difluorophenyl)-7-hydroxy-5-methyl-2-(2,2,2-trifluoroethyl)-1,2,3,4,4a,5-hexahydrodipyrido[1,2-b:2′,1′-f][1,2,4] triazine-6,8-dione] | > 8100 nM
21 | CC1(c2ccccc2)CCCC2N(CC3CC(F)(F)C3)C(=O)c3c(O)c(=O)ccn3N21 (single isomer, unassigned) [Compound 45B, 5-((3,3-difluorocyclobutyl)methyl)-7-hydroxy-1-methyl-1-phenyl-1,2,3,4,4a,5-hexahydrodipyrido[1,2-b:2′,1′-f][1,2,4]triazine-6,8-dione] | 10.6 nM
22 | CN1C(=O)c2c(O)c(=O)ccn2N2C1CCC2(C)c1ccccc1 (single isomer, unassigned) [Compound 61A, 6-hydroxy-1,4-dimethyl-1-phenyl-2,3,3a,4-tetrahydro-1H-pyrido[2,1-f]pyrrolo[1,2-b][1,2,4]triazine-5,7-dione] | 122 nM
23 | CCN1C(=O)c2c(O)c(=O)ccn2N2C1CCCC2(C)c1cccc(C)n1 (single isomer, unassigned) [Compound 53A, 5-ethyl-7-hydroxy-1-methyl-1-(6-methylpyridin-2-yl)-1,2,3,4,4a,5-hexahydrodipyrido[1,2-b:2′,1′-f][1,2,4]triazine-6,8-dione] | > 810 nM
24 | CN1C(=O)c2c(O)c(=O)ccn2N2C(c3ccccc3C(F)(F)F)CCC12 (single isomer, unassigned) [Compound 15A, 6-hydroxy-4-methyl-1-(2-(trifluoromethyl)phenyl)-2,3,3a,4-tetrahydro-1H-pyrido[2,1-f]pyrrolo[1,2-b][1,2,4]triazine-5,7-dione] | > 8100 nM
25 | CN1C(=O)c2c(O)c(=O)ccn2N2C(c3ccccc3)C(O)CCC12 (stereo not drawn) [Compound 136B, 2,7-dihydroxy-5-methyl-1-phenyl-1,2,3,4,4a,5-hexahydrodipyrido[1,2-b:2′,1′-f][1,2,4]triazine-6,8-dione] | > 8100 nM

same assay, conditions: MDCK, 48 h

Row | SMILES | EC50
26 | CN1C(=O)c2c(O)c(=O)ccn2N2[C@H](c3ccccc3)[C@@H](n3cc(CO)nn3)CC[C@@H]12 [Compound 141, (1R,2S,4aS)-7-hydroxy-2-(4-(hydroxymethyl)-1H-1,2,3-triazol-1-yl)-5-methyl-1-phenyl-1,2,3,4,4a,5-hexahydrodipyrido[1,2-b:2′,1′-f][1,2,4]triazine-6,8-dione] | > 8100 nM
27 | CN1C(=O)c2c(O)c(=O)ccn2N2[C@H](c3ccccc3)[C@H](OCC3CCCC3)CC[C@@H]12 [Compound 158, (1R,2R,4aS)-2-(cyclopentylmethoxy)-7-hydroxy-5-methyl-1-phenyl-1,2,3,4,4a,5-hexahydrodipyrido[1,2-b:2′,1′-f][1,2,4]triazine-6,8-dione] | 102 nM
28 | CC(=O)N[C@H]1CC[C@@H](c2ccccc2)N2[C@@H]1N(C)C(=O)c1c(O)c(=O)ccn12 [Compound 144, N-((1S,4S,4aS)-7-hydroxy-5-methyl-6,8-dioxo-1-phenyl-1,2,3,4,4a,5,6,8-octahydrodipyrido[1,2-b:2′,1′-f][1,2,4]triazin-4-yl)acetamide] | > 810 nM
29 | CC(C)CC1CC(c2ccccc2)N2C(C1)N(C)C(=O)c1c(O)c(=O)ccn12 (stereo not drawn) [Compound 130B, 7-hydroxy-3-isobutyl-5-methyl-1-phenyl-1,2,3,4,4a,5-hexahydrodipyrido[1,2-b:2′,1′-f][1,2,4]triazine-6,8-dione] | 1410 nM
30 | CN1C(=O)c2c(O)c(=O)ccn2N2C1CC[C@H](OCC=C(F)F)[C@@]2(C)c1ccccc1 (stereo partly drawn) [Compound 151] | > 810 nM
